Results as given in patent publication US7763615B2, “Ecteinascidin analogs for use as antitumour agents” (priority 2001, dated 2010).
Like-named read-outs stand apart in the source and are kept apart here.

How the values were obtained:
[1] = tested on: L8, normal rat skeletal muscle cells; conditions: 24 h
[2] = tested on: NRK-52E, normal rat kidney cells; conditions: 24 h
SK-OV3 = assay: Inhibition of cells growth by colorimetric assay (SRB), SK-OV3; type: cell-based; conditions: SK-OV3, 48 hours exposure, SRB; for CC50: read-out: LC50
Description: (§1) The finality of these assays is to interrupt the growth of a “in vitro” tumor cell culture by means of a continued exhibition of the cells to the sample to be testing.
(§2) A colorimetric type of assay, using sulphorhodamine B (SRB) reaction has been adapted for a quantitative measurement of cell growth and viability [following the technique described by Philip Skehan, et al. (1990), New colorimetric cytotoxicity assay for anticancer drug screening, J. Natl. Cancer Inst., 82:1107-1112]
(§3) This form of the assay employs 96 well cell culture microplates of 9 mm diameter (Faircloth, 1988; Mosmann, 1983). Most of the cell lines are obtained from American Type Culture Collection (ATCC) derived from different human cancer types.
(§4) Cells are maintained in RPMI 1640 10% FBS, supplemented with 0.1 g/l penicillin and 0.1 g/l streptomycin sulphate and then incubated at 37° C., 5% CO2 and 98% humidity. For the experiments, cells were harvested from subconfluent cultures using trypsin and resuspended in fresh medium before plating.
(§5) Cells are seeded in 96 well microtiter plates, at 5×10^3 cells per well in aliquots of 195 μl medium, and they are allowed to attach to the plate surface by growing in drug free medium for 18 hours. Afterward, samples are added in aliquots of 5 μl in a ranging from 10 to 10^−8 μg/ml, dissolved in DMSO/EtOH/PBS (0.5:0.5:99). After 48 hours exposure, the antitumor effect are measured by the SRB methodology: cells are fixed by adding 50 μl of cold 50% (wt/vol) trichloroacetic acid (TCA) and incubating for 60 minutes at 4° C. Plates are washed with deionized water and dried. One hundred μl of SRB solution (0.4% wt/vol in 1% acetic acid) is added to each microtiter well and incubated for 10 minutes at room temperature. Unbound SRB is removed by washing with 1% acetic acid. Plates are air dried and bound stain is solubilized with Tris buffer. Optical densities are read on a automated spectrophotometric plate reader at a single wavelength of 490 nm.
(§6) The values for mean+/− SD of data from triplicate wells are calculated. Some parameters for cellular responses can be calculated: GI=growth inhibition, TGI=total growth inhibition (cytostatic effect) and LC=cell killing (cytotoxic effect).

[3] = tested on: AML-12, normal mouse liver cells; conditions: 24 h
IGROV = assay: cells; type: cell-based; conditions: for GI50 / TGI: 48 hours exposure, SRB; for CC50: read-out: LC50, 48 hours exposure, SRB
Description: as §1, §2, §3, §4, §5, §6

HT29 = assay: cells; type: cell-based
Description: as §1, §2, §3, §4, §5, §6

LNCAP = assay: cells; type: cell-based; conditions: LNCAP, 48 hours exposure, SRB; for CC50: read-out: LC50
Description: as §1, §2, §3, §4, §5, §6

IGROV-ET = assay: cells; type: cell-based; conditions: IGROV-ET, 48 hours exposure, SRB; for CC50: read-out: LC50
Description: as §1, §2, §3, §4, §5, §6

A549 = assay: cells; type: cell-based; conditions: for GI50: read-out: GI50
Description: as §1, §2, §3, §4, §5, §6

LOVO = assay: cells; type: cell-based; conditions: LOVO, 48 hours exposure, SRB; for CC50: read-out: LC50
Description: as §1, §2, §3, §4, §5, §6

K562 = assay: cells; type: cell-based
Description: as §1, §2, §3, §4, §5, §6

LOVO-DOX = assay: cells; type: cell-based; conditions: LOVO-DOX, 48 hours exposure, SRB; for CC50: read-out: LC50
Description: as §1, §2, §3, §4, §5, §6

SK-BR3 = assay: cells; type: cell-based; conditions: SK-BR3, 48 hours exposure, SRB; for CC50: read-out: LC50
Description: as §1, §2, §3, §4, §5, §6

PANC-1 = assay: cells; type: cell-based; conditions: PANC-1, 48 hours exposure, SRB; for CC50: read-out: LC50
Description: as §1, §2, §3, §4, §5, §6

DU145 = assay: cells; type: cell-based; conditions: for CC50: read-out: LC50
Description: as §1, §2, §3, §4, §5, §6

MEL-28 = assay: cells; type: cell-based
Description: as §1, §2, §3, §4, §5, §6

H-MEC-1 = assay: Inhibition of cells growth by colorimetric assay (SRB), H-MEC-1; type: cell-based; conditions: H-MEC-1, 48 hours exposure, SRB; for CC50: read-out: LC50
Description: as §1, §2, §3, §4, §5, §6

[4] = tested on: FDC-P1, normal mouse myelogeous stem cells; conditions: 24 h
A498 = assay: cells; type: cell-based; conditions: Homo sapiens
Description: as §1, §2, §3, §4, §5, §6

MCF = assay: cells; type: cell-based; conditions: Homo sapiens
Description: as §1, §2, §3, §4, §5, §6

SW-620 = assay: cells; type: cell-based; conditions: Homo sapiens
Description: as §1, §2, §3, §4, §5, §6

MB231 = assay: cells; type: cell-based; conditions: Homo sapiens
Description: as §1, §2, §3, §4, §5, §6

[5] = Homo sapiens, HT-29, 48 h, read-out: LC50, HT29, 48 hours exposure, SRB
[6] = read-out: LC50, A549, 48 hours exposure, SRB
[7] = Homo sapiens, SK-MEL-28, 48 h, MEL-28, 48 hours exposure, SRB
[8] = Homo sapiens, HT-29, 48 h, HT29, 48 hours exposure, SRB
[9] = Homo sapiens, DU-145, 48 h, DU145, 48 hours exposure, SRB

COc1c(C)cc2c(c1O)[C@@H]1C3[C@@H]4SC[C@]5(C(=O)COC[C@@H](c6c7c(c(C)c(OC(C)=O)c64)OCO7)N3[C@@H](O)[C@H](C2)N1C)c1[nH]c2ccccc2c1CCN5C (some centres unmarked) [Compound 39]
Skeletal [1]: 4.58E−07
Kidney [2]: 9.88E−05
GI50 (SK-OV3): 62.4 nM
TGI (SK-OV3): 3.19E−07 Molar
CC50 (SK-OV3): 13000 nM
Liver [3]: 1.14E−06
GI50 (IGROV): 43 nM
TGI (IGROV): 8.15E−08 Molar
CC50 (IGROV): 2320 nM
GI50 (HT29; HT29, 48 hours exposure, SRB): 48.5 nM
TGI (HT29; HT29, 48 hours exposure, SRB): 1.73E−05 Molar
CC50 (HT29; [5]): 13000 nM
GI50 (LNCAP): 20.5 nM
TGI (LNCAP): 4.41E−08 Molar
CC50 (LNCAP): 94.7 nM
GI50 (IGROV-ET): 82.5 nM
TGI (IGROV-ET): 4.04E−06 Molar
CC50 (IGROV-ET): 13000 nM
TGI (A549; A549, 48 hours exposure, SRB): 8.74E−08 Molar
GI50 (A549; A549, 48 hours exposure, SRB): 46.7 nM
CC50 (A549; [6]): 2320 nM
GI50 (LOVO): 32.1 nM
TGI (LOVO): 6.22E−08 Molar
CC50 (LOVO): 120 nM
CC50 (K562; Homo sapiens, K562, 48 h, read-out: LC50, K562, 48 hours exposure, SRB): 79.2 nM
GI50 (K562; K562, 48 hours exposure, SRB): 25.1 nM
TGI (K562; K562, 48 hours exposure, SRB): 4.46E−08 Molar
GI50 (LOVO-DOX): 234 nM
TGI (LOVO-DOX): 9.94E−07 Molar
CC50 (LOVO-DOX): 13000 nM
GI50 (SK-BR3): 49.9 nM
TGI (SK-BR3): 1.10E−07 Molar
CC50 (SK-BR3): 944 nM
GI50 (PANC-1): 60.1 nM
TGI (PANC-1): 9.22E−07 Molar
CC50 (PANC-1): 13000 nM
GI50 (DU145; DU145, 48 hours exposure, SRB): 55.9 nM
TGI (DU145; DU145, 48 hours exposure, SRB): 2.03E−06 Molar
CC50 (DU145; DU145, 48 hours exposure, SRB): 13000 nM
GI50 (MEL-28; [7]): 34.7 nM
IC (TGI) (MEL-28; [7]): 69.1 nM
CC50 (MEL-28; Homo sapiens, SK-MEL-28, 48 h, read-out: LC50, MEL-28, 48 hours exposure, SRB): 181 nM
GI50 (H-MEC-1): 58.1 nM
TGI (H-MEC-1): 1.46E−06 Molar
CC50 (H-MEC-1): 13000 nM
Myelo [4]: 4.10E−07

COc1c(C)cc2c(c1O)[C@@H]1C3[C@@H]4SC[C@]5(C(=O)COC[C@@H](c6c7c(c(C)c(OC(C)=O)c64)OCO7)N3[C@@H](O)[C@H](C2)N1C)c1[nH]c2ccccc2c1CCN5C (some centres unmarked) [Compound 40]
Skeletal [1]: 2.11E−07
Kidney [2]: 2.95E−08
GI50 (SK-OV3): 2.9 nM
TGI (SK-OV3): 6.28E−09 Molar
CC50 (SK-OV3): 13 nM
Liver [3]: 3.86E−08
GI50 (IGROV): 1.96 nM
TGI (IGROV): 4.17E−09 Molar
CC50 (IGROV): 8.86 nM
GI50 (HT29; HT29, 48 hours exposure, SRB): 3.26 nM
TGI (HT29; HT29, 48 hours exposure, SRB): 1.06E−08 Molar
CC50 (HT29; read-out: LC50, HT29, 48 hours exposure, SRB): 13000 nM
GI50 (LNCAP): 1.02 nM
TGI (LNCAP): 2.48E−09 Molar
CC50 (LNCAP): 5.88 nM
GI50 (IGROV-ET): 2.42 nM
TGI (IGROV-ET): 8.66E−09 Molar
CC50 (IGROV-ET): 4800 nM
TGI (A549; A549, 48 hours exposure, SRB): 4.11E−09 Molar
GI50 (A549; A549, 48 hours exposure, SRB): 2.41 nM
CC50 (A549; [6]): 7.02 nM
GI50 (LOVO): 2.51 nM
TGI (LOVO): 5.98E−09 Molar
CC50 (LOVO): 23.8 nM
GI50 (K562; K562, 48 hours exposure, SRB): 0.843 nM
TGI (K562; K562, 48 hours exposure, SRB): 6.87E−09 Molar
CC50 (K562; read-out: LC50, K562, 48 hours exposure, SRB): 80 nM
GI50 (LOVO-DOX): 30.4 nM
TGI (LOVO-DOX): 9.12E−08 Molar
CC50 (LOVO-DOX): 551 nM
GI50 (SK-BR3): 2.56 nM
TGI (SK-BR3): 6.50E−09 Molar
CC50 (SK-BR3): 28 nM
GI50 (PANC-1): 2.82 nM
TGI (PANC-1): 7.17E−09 Molar
CC50 (PANC-1): 128 nM
GI50 (DU145; DU145, 48 hours exposure, SRB): 2.35 nM
TGI (DU145; DU145, 48 hours exposure, SRB): 6.41E−09 Molar
CC50 (DU145; DU145, 48 hours exposure, SRB): 2450 nM
GI50 (MEL-28; MEL-28, 48 hours exposure, SRB): 19.6 nM
TGI (MEL-28; MEL-28, 48 hours exposure, SRB): 4.70E−08 Molar
CC50 (MEL-28; read-out: LC50, MEL-28, 48 hours exposure, SRB): 112 nM
GI50 (H-MEC-1): 2.45 nM
TGI (H-MEC-1): 5.31E−09 Molar
CC50 (H-MEC-1): 11.5 nM
Myelo [4]: 4.08E−08

COc1c(C)cc2c(c1O)[C@@H]1C3[C@@H]4SC[C@]5(NCCc6c5[nH]c5ccccc65)C(=O)COC[C@@H](c5c6c(c(C)c(OC(=O)C(F)(F)C(F)(F)C(F)(F)F)c54)OCO6)N3[C@@H](O)[C@H](C2)N1C (some centres unmarked) [Compound 62]
GI50 (HT29; [8]): 11 nM
IC (TGI) (HT29; [8]): 66 nM
CC50 (HT29; [5]): 99 nM
CC50 (A498; A498, 48 h, read-out: LC50): 11 nM
GI50 (A498; A498, 48 hours exposure, SRB): 3.3 nM
IC (TGI) (A498; A498, 48 hours exposure, SRB): 4.4 nM
GI50 (A549; Homo sapiens, A549, 48 h, A549, 48 hours exposure, SRB): 8.8 nM
IC (TGI) (A549; Homo sapiens, A549, 48 h, A549, 48 hours exposure, SRB, read-out: TGI): 33 nM
CC50 (A549; Homo sapiens, A549, 48 h, read-out: LC50, A549, 48 hours exposure, SRB): 77 nM
CC50 (MCF; 48 h, read-out: LC50): 110 nM
GI50 (MCF; MCF, 48 hours exposure, SRB): 2.2 nM
IC (TGI) (MCF; MCF, 48 hours exposure, SRB, read-out: TGI): 9.9 nM
CC50 (SW-620; SW-620, 48 h, read-out: LC50): 110 nM
IC (TGI) (SW-620; SW-620, 48 hours exposure, SRB): 55 nM
GI50 (SW-620; SW-620, 48 hours exposure, SRB, read-out: GI50): 22 nM
GI50 (DU145; [9]): 2.2 nM
IC (TGI) (DU145; [9]): 4.4 nM
CC50 (DU145; Homo sapiens, DU-145, 48 h): 9.9 nM
GI50 (MEL-28; [7]): 3.3 nM
IC (TGI) (MEL-28; [7]): 1.1 nM
CC50 (MEL-28; Homo sapiens, SK-MEL-28, 48 h, read-out: LC50): 33 nM
CC50 (MB231; 48 h, read-out: LC50): 33 nM
GI50 (MB231; MB231, 48 hours exposure, SRB): 1.1 nM
IC (TGI) (MB231; MB231, 48 hours exposure, SRB, read-out: TGI): 5.5 nM
